Measurements taken from patent US8431593B2, “Heteroaryl amide derivatives” (H. Lundbeck A/S, priority 2006, dated 2013).
pIC50: −log10 of the molar value. Like-named read-outs stand apart in the source and are kept apart here.

Target: T1, P2X7 receptor (Homo sapiens, UniProt Q99572)
T1 construct: host or cells: SH-SY5Y
T1 sequence (Q99572 1-595): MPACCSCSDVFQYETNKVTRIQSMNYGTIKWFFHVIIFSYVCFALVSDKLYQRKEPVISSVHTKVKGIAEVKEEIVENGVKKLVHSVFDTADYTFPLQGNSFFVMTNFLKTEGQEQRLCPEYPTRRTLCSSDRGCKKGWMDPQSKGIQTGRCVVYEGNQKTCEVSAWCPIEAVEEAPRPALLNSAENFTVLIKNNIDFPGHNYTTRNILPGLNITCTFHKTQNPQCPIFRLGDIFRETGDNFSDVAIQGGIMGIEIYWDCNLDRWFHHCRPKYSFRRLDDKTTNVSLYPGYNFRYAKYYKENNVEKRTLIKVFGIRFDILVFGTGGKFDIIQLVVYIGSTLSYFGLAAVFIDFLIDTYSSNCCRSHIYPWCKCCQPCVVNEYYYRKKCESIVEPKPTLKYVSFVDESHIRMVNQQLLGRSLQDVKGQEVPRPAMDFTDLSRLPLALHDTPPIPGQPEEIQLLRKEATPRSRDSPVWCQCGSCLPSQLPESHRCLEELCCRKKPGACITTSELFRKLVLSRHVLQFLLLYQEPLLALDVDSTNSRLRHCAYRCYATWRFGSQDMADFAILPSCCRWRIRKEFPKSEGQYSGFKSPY
Assay: P2X7 calcium mobilization assay, high throughput, antagonist activity (Example 4A)
Type: cell-based
Conditions: Example 4A, read-out: IC50
Summary of the method: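 Antagonism was measured as calcium mobilization on FLIPR^TETRA after a 1 h room-temperature compound preincubation of dye-loaded cells. Baseline from no-agonist wells was subtracted from each well's maximum RFU.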

[1] = 50% decrease in the fluorescence response of cells exposed to 80 μM 2′(3′)-O-(4-benzoyl-benzoyl)adenosine 5′-triphosphate
[2] = 50% decrease in the fluorescence response of cells exposed to 80 μM of 2′(3′)-O-(4-benzoyl-benzoyl)adenosine 5′-triphosphate

| Structure (SMILES) | pIC50 [1] | pIC50 [2] |
| --- | --- | --- |
| CC(C)[C@@H]1CN(C(=O)c2cn3c(C(=O)NCC45CC6CC(CC(C6)C4)C5)cccc3n2)CCN1 [Compound 614, N-(adamantan-1-ylmethyl)-2-{[(3R)-3-isopropylpiperazin-1-yl]carbonyl}imidazo[1,2-a]pyridine-5-carboxamide] | > 5.70 | – |
| CC(C)[C@H]1CN(C(=O)c2cn3c(C(=O)NCC45CC6CC(CC(C6)C4)C5)cccc3n2)CCN1 [Compound 615, N-(adamantan-1-ylmethyl)-2-{[(3S)-3-isopropylpiperazin-1-yl]carbonyl}imidazo[1,2-a]pyridine-5-carboxamide] | > 5.70 | – |
| C[C@H]1CN(C(=O)c2cn3c(C(=O)NCC45CC6CC(CC(C6)C4)C5)cccc3n2)CCN1 [Compound 616, N-(adamantan-1-ylmethyl)-2-{[(3S)-3-methylpiperazin-1-yl]carbonyl}imidazo[1,2-a]pyridine-5-carboxamide] | > 5.70 | – |
| CN(C)CCN(C(=O)c1cn2c(C(=O)NCC34CC5CC(CC(C5)C3)C4)cccc2n1)C1CCNCC1 [Compound 617, 5-N-(adamantan-1-ylmethyl)-2-N-[2-(dimethylamino)ethyl]-2-N-piperidin-4-ylimidazo[1,2-a]pyridine-2,5-dicarboxamide] | > 5.70 | – |
| COCCN(C(=O)c1cn2c(C(=O)NCC34CC5CC(CC(C5)C3)C4)cccc2n1)C1CCNCC1 [Compound 618, 5-N-(adamantan-1-ylmethyl)-2-N-(2-methoxyethyl)-2-N-piperidin-4-yl imidazo[1,2-a]pyridine-2,5-dicarboxamide] | – | > 5.70 |
| COCCCN(C(=O)c1cn2c(C(=O)NCC34CC5CC(CC(C5)C3)C4)cccc2n1)C1CCNCC1 [Compound 619, 5-N-(adamantan-1-ylmethyl)-2-N-(3-methoxypropyl)-2-N-piperidin-4-ylimidazo[1,2-a]pyridine-2,5-dicarboxamide] | – | > 5.70 |
| CN(C)CCN(C(=O)c1cn2c(C(=O)NCC34CC5CC(CC(C5)C3)C4)cccc2n1)C1CCNCC1(C)C (stereo not drawn) [Compound 620, 5-N-(adamantan-1-ylmethyl)-2-N-[2-(dimethylamino)ethyl]-2-N-(3,3-dimethylpiperidin-4-yl)imidazo[1,2-a]pyridine-2,5-dicarboxamide] | – | > 5.70 |
| CN(C)CCCN(C(=O)c1cn2c(C(=O)NCC34CC5CC(CC(C5)C3)C4)cccc2n1)C1CCNCC1(C)C (stereo not drawn) [Compound 621, 5-N-(adamantan-1-ylmethyl)-2-N-[3-(dimethylamino)propyl]-2-N-(3,3-dimethylpiperidin-4-yl)imidazo[1,2-a]pyridine-2,5-dicarboxamide] | – | > 5.70 |
| NCC1CCCN1C(=O)c1cn2c(C(=O)NCC34CC5CC(CC(C5)C3)C4)cccc2n1 (stereo not drawn) [Compound 622, N-(adamantan-1-ylmethyl)-2-{[2-(aminomethyl)pyrrolidin-1-yl]carbonyl} imidazo[1,2-a]pyridine-5-carboxamide] | – | > 5.70 |
| COCCN(C(=O)c1cn2c(C(=O)NCC34CC5CC(CC(C5)C3)C4)cccc2n1)C1CCNCC1(C)C (stereo not drawn) [Compound 623, 5-N-(adamantan-1-ylmethyl)-2-N-(3,3-dimethylpiperidin-4-yl)-2-N-(2-methoxyethyl)imidazo [1,2-a]pyridine-2,5-dicarboxamide] | – | > 5.70 |
| NC1CCN(C(=O)c2cn3c(C(=O)NCC45CC6CC(CC(C6)C4)C5)cccc3n2)C1 (stereo not drawn) [Compound 625, N-(adamantan-1-ylmethyl)-2-[(3-aminopyrrolidin-1-yl)carbonyl] imidazo[1,2-a]pyridine-5-carboxamide] | – | > 5.70 |
| NC1CCN(C(=O)c2cn3c(C(=O)NCC45CC6CC(CC(C6)C4)C5)cccc3n2)CC1 [Compound 626, N-(adamantan-1-ylmethyl)-2-[(4-aminopiperidin-1-yl)carbonyl]imidazo[1,2-a]pyridine-5-carboxamide] | – | > 5.70 |
| NC1CCCN(C(=O)c2cn3c(C(=O)NCC45CC6CC(CC(C6)C4)C5)cccc3n2)C1 (stereo not drawn) [Compound 627, N-(adamantan-1-ylmethyl)-2-[(3-aminopiperidin-1-yl)carbonyl]imidazo[1,2-a]pyridine-5-carboxamide] | – | > 5.70 |
| NC[C@@H]1CCCN1C(=O)c1cn2c(C(=O)NCC34CC5CC(CC(C5)C3)C4)cccc2n1 [Compound 628, N-(adamantan-1-ylmethyl)-2-{[(2S)-2-(aminomethyl)pyrrolidin-1-yl]carbonyl}imidazo[1,2-a]pyridine-5-carboxamide] | – | > 5.70 |
| N[C@H]1CCN(C(=O)c2cn3c(C(=O)NCC45CC6CC(CC(C6)C4)C5)cccc3n2)C1 [Compound 629, N-(adamantan-1-ylmethyl)-2-{[(3S)-3-aminopyrrolidin-1-yl]carbonyl}imidazo[1,2-a]pyridine-5-carboxamide] | – | > 5.70 |
| NCC1CCN(C(=O)c2cn3c(C(=O)NCC45CC6CC(CC(C6)C4)C5)cccc3n2)CC1 [Compound 630, N-(adamantan-1-ylmethyl)-2-{[4-(aminomethyl)piperidin-1-yl]carbonyl}imidazo[1,2-a]pyridine-5-carboxamide] | – | > 5.70 |
| NCC1CCCN(C(=O)c2cn3c(C(=O)NCC45CC6CC(CC(C6)C4)C5)cccc3n2)C1 (stereo not drawn) [Compound 631, N-(adamantan-1-ylmethyl)-2-{[3-(aminomethyl)piperidin-1-yl]carbonyl} imidazo[1,2-a]pyridine-5-carboxamide] | – | > 5.70 |
| NCC1CCCCN1C(=O)c1cn2c(C(=O)NCC34CC5CC(CC(C5)C3)C4)cccc2n1 (stereo not drawn) [Compound 632, N-(adamantan-1-ylmethyl)-2-{[2-(aminomethyl)piperidin-1-yl]carbonyl}imidazo[1,2-a]pyridine-5-carboxamide] | – | > 5.70 |
| NC[C@H]1CCCN1C(=O)c1cn2c(C(=O)NCC34CC5CC(CC(C5)C3)C4)cccc2n1 [Compound 633, N-(adamantan-1-ylmethyl)-2-{[(2R)-2-(aminomethyl)pyrrolidin-1-yl]carbonyl}imidazo[1,2-a]pyridine-5-carboxamide] | – | > 5.70 |
| NCC1CN(C(=O)c2cn3c(C(=O)NCC45CC6CC(CC(C6)C4)C5)cccc3n2)C1 [Compound 634, N-(adamantan-1-ylmethyl)-2-{[3-(aminomethyl)azetidin-1-yl]carbonyl}imidazo[1,2-a]pyridine-5-carboxamide] | – | > 5.70 |
| NC1CN(C(=O)c2cn3c(C(=O)NCC45CC6CC(CC(C6)C4)C5)cccc3n2)C1 [Compound 635, N-(adamantan-1-ylmethyl)-2-[(3-aminoazetidin-1-yl)carbonyl]imidazo[1,2-a]pyridine-5-carboxamide] | – | > 5.70 |
| O=C(NC1CCNCC1)c1cn2c(C(=O)NCC34CC5CC(CC(C5)C3)C4)cccc2n1 [Compound 637, 5-N-(adamantan-1-ylmethyl)-2-N-piperidin-4-ylimidazo[1,2-a]pyridine-2,5-dicarboxamide] | – | > 5.70 |
| O=C(NCC1CCCN1)c1cn2c(C(=O)NCC34CC5CC(CC(C5)C3)C4)cccc2n1 (stereo not drawn) [Compound 639, 5-N-(adamantan-1-ylmethyl)-2-N-(pyrrolidin-2-ylmethyl)imidazo[1,2-a]pyridine-2,5-dicarboxamide] | – | > 5.70 |
| NC1CC2CCC(C1)N2C(=O)c1cn2c(C(=O)NCC34CC5CC(CC(C5)C3)C4)cccc2n1 (stereo not drawn) [Compound 640, N-(adamantan-1-ylmethyl)-2-[(3-amino-8-azabicyclo[3.2.1]oct-8-yl)carbonyl]imidazo[1,2-a]pyridine-5-carboxamide] | – | > 5.70 |
| CCN1CCCC1CNC(=O)c1cn2c(C(=O)NCC34CC5CC(CC(C5)C3)C4)cccc2n1 (stereo not drawn) [Compound 643, 5-N-(adamantan-1-ylmethyl)-2-N-[(1-ethylpyrrolidin-2-yl)methyl]imidazo[1,2-a]pyridine-2,5-dicarboxamide] | – | > 5.70 |
| CN(C)CC(C)(C)CNC(=O)c1cn2c(C(=O)NCC34CC5CC(CC(C5)C3)C4)cccc2n1 [Compound 644, 5-N-(adamantan-1-ylmethyl)-2-N-[3-(dimethylamino)-2,2-dimethylpropyl] imidazo[1,2-a] pyridine-2,5-dicarboxamide] | – | > 5.70 |
| O=C(NCCCN1CCCC1)c1cn2c(C(=O)NCC34CC5CC(CC(C5)C3)C4)cccc2n1 [Compound 645, 5-N-(adamantan-1-ylmethyl)-2-N-(3-pyrrolidin-1-ylpropyl)imidazo[1,2-a]pyridine-2,5-dicarboxamide] | – | > 5.70 |
| O=C(NCCN1CCCC1)c1cn2c(C(=O)NCC34CC5CC(CC(C5)C3)C4)cccc2n1 [Compound 646, 5-N-(adamantan-1-ylmethyl)-2-N-(2-pyrrolidin-1-ylethyl)imidazo[1,2-a]pyridine-2,5-dicarboxamide] | – | > 5.70 |
| CN(C)CCCNC(=O)c1cn2c(C(=O)NCC34CC5CC(CC(C5)C3)C4)cccc2n1 [Compound 647, 5-N-(adamantan-1-ylmethyl)-2-N-[3-(dimethylamino)propyl]imidazo [1,2-a]pyridine-2,5-dicarboxamide] | – | > 5.70 |
| O=C(NCCN1CCOCC1)c1cn2c(C(=O)NCC34CC5CC(CC(C5)C3)C4)cccc2n1 [Compound 648, 5-N-(adamantan-1-ylmethyl)-2-N-(2-morpholin-4-ylethyl)imidazo[1,2-a]pyridine-2,5-dicarboxamide] | – | > 5.70 |
